“And” between values parts separate entries of the source, which are not always exact repeats. Identical values can stand only once.
Tests used:
Assay type in all cases: cell-based, Human
[1] = tested on: U87 cells; test: T1-weighted MRI (2D FLASH) of U87 cells after uptake of contrast agent; settings: U87 cells at 7*10^4 cell/cm^2, 400 µM, 4.7 T, unlabeled cells SNR 60
Procedure: E-[c(RGDfK)2]-DOTA-Gd uptake by U87 cells was performed on cells platted at 7.10^4 cells/cm^2. After 24 h, the cells were then incubated for 4 h with 400 µM of E-[c(RGDfK)2]-DOTA-Gd or for 1 h with MnCl2 at 400 µM as positive contrast for the T1-weighted (T1-w) sequence. Then the medium was discarded and the cells were washed with RPMI. The cells were re-suspended at 2.10_6 cells in 100 µL of phosphate buffer saline (PBS) for each condition and mixed with 100 µL of agarose 2% (Sigma-Aldrich).
MR images of cells trapped in agarose gel were acquired on a 4.7 T Biospec system (Bruker, Ettlingen, Germany). The system was equipped with a 6-cm diameter BG6 gradient system capable of 950 mT/m maximum strength. Imaging was performed with a birdcage resonator (35-mm diameter and 80-mm length) tuned at 200.3 MHz. 2D images were acquired with a T1-w sequence (FLASH sequence, TE/TR: 1,6/14 ms, flip angle: 60°, FOV: 25*25 mm, matrix:128*96, […], total acquisition time: 5 min 44 s).

[2] = tested on: U87 cells; test: Flow cytometry uptake with endocytosis pathway inhibitors (nystatin, amiloride, chloroquine); settings: 1 h
Procedure: (§1) Uptakes of E-[c(RGDfK)2]-Alexa488 and iRGD-alexa488 by U87 cells were compared for different cellular densities using flow cytometry. Twenty four multiwell plates (Becton-Dickinson, 2 cm^2/well), were pretreated with collagen (Sigma-Aldrich) (10 µg/cm^2). Then the cells were seeded during 24 h either at densities ranging from 8.10^3 to 10^5 cells/cm2 or at three typical densities being in the lowest, the median and the highest values of the previously mentioned density range. The cells were incubated 1 h with the fluorescent RGD ligands (E-[c(RGDfK)2]-Alexa488, 2 µM; iRGD-alexa488, 15 µM). Then the medium was discarded and the cells were washed with Roswell Park Memorial Institute Medium (RPMI, Gibco Corp). Thereafter the cells were re-suspended in RPMI at 100 cells/µl and analyzed by flow cytometry (Guava easyCyte flow cytometer/counter, Millipore, λexc: 488 nm, λem: 525 nm).
The clathrin-mediated endocytosis and the caveola-dependent endocytosis were characterized by incubations with chloroquine (100 µM) and nystatin (30 µM), respectively. Contribution of macropinocytosis was studied following amiloride treatment (1 mM).
(§2) All of these inhibitors and drugs were applied on the cells for 1 h simultaneously with the fluorescent RGD ligands. When specified, incubation of drugs begun 20 min before the incubation with the RGD ligands. All the reagents were from Sigma-Aldrich.

[3] = tested on: U87 cells; test: Flow cytometry uptake with cytoskeleton drugs (paclitaxel, cytoD, colchicine, nocodazole); settings: 1 h
Procedure: as §1
The microtubule targeting was performed using paclitaxel (10 µM), colchicin (7.5 µM) and nocodazole (30 µM).
as §2

[4] = tested on: U87 cells; test: Fluorescence microscopy of sub-cellular location of fluorescent RGD ligands
Procedure: Protocols for microscopy were identical to those for flow cytometry. Cells were seeded on glass coverslips after collagen treatment as described above. After the different sets of incubations the cells were washed with RPMI and fixed with paraformaldehyde (4%, 20 min). Nuclei were then labeled with DAPI (0.01 mg/ml). After three washes, the coverslips were mounted on glass slides and observed using a Leica DM5500 B (magnification 63×, λexc: 480 nm, λem: 530 nm and λexc:360 nm λem: 470 nm for alexa fluor-488 and DAPI respectively).

[5] = tested on: U87 cells; test: Flow cytometry uptake under different energy substrates and oxidative metabolism inhibitors
Procedure: Human GBM cell line U87-MG from the American Type Culture Collection (ATCC, LGC standards, Middlesex, UK) was cultured in Dulbecco's modified eagles medium (DMEM, Gibco Corp) supplemented with 10% fetal calf serum (FCS, Gibco Corp), in a humidified atmosphere with 5% CO2 at 37°C. The characterization of the metabolism contribution was performed with DMEM without glucose and pyruvate (DMEM, Gibco Corp). Glucose or pyruvate were added when necessary at the concentration of 1 g/L and 0.11 g/L , respectively.
as §1
The oxidative metabolism was studied with oligomycine (20 µM) and rotenone (10 µM).
as §2

[6] = tested on: U87 cells; test: Flow cytometry uptake of fluorescent RGD ligands versus cell density; settings: 8*10^3 to 10^5 cells/cm^2, 1 h incubation, Alexa Fluor-488 conjugates (E-[c(RGDfK)2] 2 µM; iRGD 15 µM)
Procedure: as §1

[7] = tested on: U87 cells; test: T1-weighted MRI (3D FLASH) of U87 cells seeded at three densities and labeled with RGD-Gd; settings: 400 µM
Procedure: Seeded at three densities, cells were incubated with E-[c(RGDfK)2]-DOTA-Gd at 400 µM for 4 h. The same protocol to prepare cells trapped in agarose gel was used. 3D images of the RGD internalization were acquired with a T1-w sequence (FLASH sequence, TE/TR: 1,5/12 ms, flip angle: 20°, FOV: 30*25*20 mm, matrix:128*128*64, 6 averages, total acquisition time: 9 min 49 s).

[Cl][Mn][Cl] [MnCl2, reference compound]
SNR of labeled U87 cells (T1-w MRI) ([1]; positive contrast control, 1 h incubation): 100

CRGDK/RGPD/EC [iRGD-alexa488]
Effect of macropinocytosis inhibition (amiloride) on internalization ([2]; amiloride 1 mM): had no effect | Decrease of uptake after chloroquine treatment, high density ([2]; chloroquine 100 µM, high density (95000 cell/cm^2 for E-[c(RGDfK)2], 75000 for iRGD), mean ± SEM, n≥3): 53.9%±2.5% | Decrease of uptake after chloroquine treatment, low density ([2]; chloroquine 100 µM, low density (15000 cell/cm^2 for E-[c(RGDfK)2], 7000 for iRGD), mean ± SEM, n≥3): 42.4%±1.1% and 42% | Decrease of uptake after chloroquine treatment, medium density ([2]; chloroquine 100 µM, medium density (50000 cell/cm^2 for E-[c(RGDfK)2], 35000 for iRGD), mean ± SEM, n≥3): 48.2±0.2% | Effect of caveolin-dependent endocytosis inhibition (nystatin) on internalization ([2]; nystatin 30 µM, all studied cell densities): did not alter | Uptake results after colchicine treatment (strong decrease), high density ([3]; colchicine 7.5 µM, high density (80000 cell/cm^2 for E-[c(RGDfK)2], 70000 for iRGD), mean ± SEM, n≥3): 54.8%±0.8% | Uptake results after colchicine treatment (strong decrease), low density ([3]; colchicine 7.5 µM, low density (10000 cell/cm^2), mean ± SEM, n≥3): 55.0%±0.3% | Uptake results after colchicine treatment (strong decrease), medium density ([3]; colchicine 7.5 µM, medium density (40000 cell/cm^2 for E-[c(RGDfK)2], 35000 for iRGD), mean ± SEM, n≥3): 53.1%±0.1% | cytoD effect on internalization (decrease), high density ([3]; cytoD 20 µM, high density (80000 cell/cm^2 for E-[c(RGDfK)2], 70000 for iRGD), mean ± SEM, n≥3): 29.0%±2.1% | cytoD effect on internalization (decrease), low density ([3]; cytoD 20 µM, low density (10000 cell/cm^2), mean ± SEM, n≥3): 29.7%±1.3% | cytoD effect on internalization (decrease), medium density ([3]; cytoD 20 µM, medium density (35000 cell/cm^2 for iRGD), mean ± SEM, n≥3): 23.5%±1.3% | Effect of paclitaxel (stabilization of polymerized microtubules) on internalization ([3]; paclitaxel 10 µM): did not alter | Sub-cellular location of the fluorescent signal ([4]; 1 h at 37°C, all studied cell densities, no inhibitor (iRGD-alexa488 15 µM)): most of the signal appeared intracellular | Membrane labeling ([4]; 1 h at 37°C, no inhibitor (iRGD-alexa488 15 µM)): undetectable | Fluorescence location in the presence or not of nystatin ([4]; nystatin (30 µM), data not shown): inside cytoplasmic vesicles | Sub-cellular location of fluorescence during inhibition of clathrin-mediated endocytosis ([4]; with chloroquine (100 µM)): typical cytoplasmic membrane labeling | Internalization without glucose and with or without pyruvate (conditions 2 and 3) ([5]; DMEM without glucose, no oligomycin, remained cell density dependent): not altered | Internalization with oligomycin in presence of glucose and pyruvate (condition 4) ([5]; oligomycin 20 µM, glucose 1 g/L, pyruvate 0.11 g/L): decreased more for the lowest cell densities than for the highest ones | Internalization without glucose in the presence of pyruvate and oligomycin (condition 5) ([5]; oligomycin 20 µM, regardless of the cell density): strong inhibition | Internalization with rotenone compared with oligomycin ([5]; rotenone 10 µM, data not shown): comparable | Increase of cell labeling (MFI) at the highest densities compared to the lowest [6]: 30%

E-[c(RGDfK)2]-DOTA-Gd (bicyclic or more) [RGD-gadolinium chelate made by mixing E-[c(RGDfK)2]-DOTA with GdCl2; MRI contrast agent]
SNR of labeled U87 cells (T1-w MRI) ([1]; 4 h incubation): 70 | SNR values for low, medium and high density compared with each other [7]: not significantly different | SNR of the different cell densities compared with SNR of control ([7]; p<0.05): significantly higher | SNR (T1-w MRI), highest cell density ([7]; highest density, 4 h, 3D FLASH 4.7 T): 16.5

From article PMC3873929, “Cellular Density Effect on RGD Ligand Internalization in Glioblastoma for MRI Application” (PLoS ONE, 2013)
